The results in this text go back to patent US12133846B2, “Electrophilic androgen receptor (AR) antagonists for AR downregulation and ferroptosis induction in cancer cells” (priority 2019, dated 2024).

Values joined by “and” are separate entries in the source; they are usually repeats but may differ in a detail not shown here. Identical values can stand only once.

The test system of test [1] is LNCaP and RWPE-1 cells. Put plainly: MTT viability, PCa LNCaP versus non-cancerous RWPE-1 cells. In kind it is cell-based. The following applies: 72 h, 2.5 to 10 μM. The source says:
Because of the better selectivity and water solubility of 2-63 over 12b, 2-63 was used for further in vitro characterization and mechanistic studies.

The test system of test [2] is C4-2 cells. The test can be described thus: MTT viability assay, C4-2 cells. The test is classed as cell-based. The following applies: 5 μM, 72 h. The source says: (§1) Biological Characterization. ITC-ARi hybrid drugs effectively reduce the viability of PCa cells. By using an MTT assay, it was first examined if the newly synthesized hybrid drugs affect the viability of CRPC-relevant PCa cells. PCa VCaP cells naturally express abundant wild type FL AR as well as AR splice variants (e.g., AR-V7). These cells were, therefore, used as one of the cell culture models in this work to investigate the drug-caused viability loss and AR downregulation.
Background: Formazan colour is commonly taken as a measure of viable cells.

Test [3] has as its system Hsp90, Hsp70, HO-1. The test can be described thus: Western blotting of Hsp90, Hsp70 and HO-1 in VCaP cells. The following applies: 16 h, 5 and 15 μM. The test is classed as cell-based. The method, then:
(§2) Western Blotting. […] Proteins in cell lysates (40 μg) were separated using electrophoresis on SDS-PAGE and transferred onto PVDF (polyvinylidenedifluoride) membranes. Membranes were blocked in 5% fat-free milk followed by incubation with primary antibodies overnight at 4° C., and the secondary horseradish peroxidase-conjugated anti-rabbit or anti-mouse antibodies. The blots were developed in the Enhanced Chemiluminescence mixture and detected by ImageQuant™ LAS 4000 imaging system (GE). Density of protein bonds were calculated and analyzed by using imageJ software downloaded from the National Institute of Health website.

The subject of test [4] is acetylation of α-tubulin and histone H3 (markers for HDAC6 and nuclear HDAC inhibition). Put plainly: Western blotting of acetylation markers in VCaP cells. The following applies: 16 h, 2-63 and 12b 5 and 15 μM, SAHA 1 μM. In kind it is cell-based. The procedure: as §2
(A western blot detects proteins with antibodies after separation by electrophoresis.)

The subject of test [5] is VCaP cells. The test can be described thus: MTT viability assay, VCaP cells. The following applies: Homo sapiens, VCaP; 72 h, full media, MTT; read-out: IC50, viability of VCaP cells. In kind it is cell-based.
Excerpt: as §1

The target in test [6] is T1, FL AR and AR-V7 (Homo sapiens, UniProt P10275).
T1 construct: Whole cell lysates were subjected to Western blotting and probed with the indicated antibodies; endogenous in cells; host or cells: VCaP
T1 sequence (P10275 1-644 isoform P10275-3): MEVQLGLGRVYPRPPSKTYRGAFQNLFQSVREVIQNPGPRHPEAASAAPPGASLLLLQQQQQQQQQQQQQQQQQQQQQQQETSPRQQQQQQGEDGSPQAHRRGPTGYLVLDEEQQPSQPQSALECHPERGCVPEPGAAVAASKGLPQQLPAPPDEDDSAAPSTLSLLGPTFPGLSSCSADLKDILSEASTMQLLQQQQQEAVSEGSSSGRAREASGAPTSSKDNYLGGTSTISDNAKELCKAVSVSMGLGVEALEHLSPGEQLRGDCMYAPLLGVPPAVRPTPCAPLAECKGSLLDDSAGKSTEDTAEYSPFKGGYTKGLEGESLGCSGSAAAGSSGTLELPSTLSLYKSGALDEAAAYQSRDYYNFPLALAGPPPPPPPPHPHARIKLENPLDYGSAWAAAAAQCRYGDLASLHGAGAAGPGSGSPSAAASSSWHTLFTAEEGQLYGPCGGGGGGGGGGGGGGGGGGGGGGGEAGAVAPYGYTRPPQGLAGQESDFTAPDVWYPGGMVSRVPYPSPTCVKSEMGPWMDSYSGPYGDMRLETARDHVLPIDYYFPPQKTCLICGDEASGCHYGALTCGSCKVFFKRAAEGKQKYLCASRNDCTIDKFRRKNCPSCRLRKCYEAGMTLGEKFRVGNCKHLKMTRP
Put plainly: Western blotting of FL AR and AR-V7 in VCaP cells. The test is classed as cell-based. The following applies: full media, 16 h, 2-63, 12b 5 and 15 μM, Enz 10 μM. The method, then: as §2

Test [7] deals with T2, FL AR and AR-V7 (Homo sapiens, UniProt P10275).
T2 construct: Whole cell lysates were subjected to Western blotting and probed with the indicated antibodies; endogenous in cells; host or cells: VCaP
T2 sequence (P10275 1-920): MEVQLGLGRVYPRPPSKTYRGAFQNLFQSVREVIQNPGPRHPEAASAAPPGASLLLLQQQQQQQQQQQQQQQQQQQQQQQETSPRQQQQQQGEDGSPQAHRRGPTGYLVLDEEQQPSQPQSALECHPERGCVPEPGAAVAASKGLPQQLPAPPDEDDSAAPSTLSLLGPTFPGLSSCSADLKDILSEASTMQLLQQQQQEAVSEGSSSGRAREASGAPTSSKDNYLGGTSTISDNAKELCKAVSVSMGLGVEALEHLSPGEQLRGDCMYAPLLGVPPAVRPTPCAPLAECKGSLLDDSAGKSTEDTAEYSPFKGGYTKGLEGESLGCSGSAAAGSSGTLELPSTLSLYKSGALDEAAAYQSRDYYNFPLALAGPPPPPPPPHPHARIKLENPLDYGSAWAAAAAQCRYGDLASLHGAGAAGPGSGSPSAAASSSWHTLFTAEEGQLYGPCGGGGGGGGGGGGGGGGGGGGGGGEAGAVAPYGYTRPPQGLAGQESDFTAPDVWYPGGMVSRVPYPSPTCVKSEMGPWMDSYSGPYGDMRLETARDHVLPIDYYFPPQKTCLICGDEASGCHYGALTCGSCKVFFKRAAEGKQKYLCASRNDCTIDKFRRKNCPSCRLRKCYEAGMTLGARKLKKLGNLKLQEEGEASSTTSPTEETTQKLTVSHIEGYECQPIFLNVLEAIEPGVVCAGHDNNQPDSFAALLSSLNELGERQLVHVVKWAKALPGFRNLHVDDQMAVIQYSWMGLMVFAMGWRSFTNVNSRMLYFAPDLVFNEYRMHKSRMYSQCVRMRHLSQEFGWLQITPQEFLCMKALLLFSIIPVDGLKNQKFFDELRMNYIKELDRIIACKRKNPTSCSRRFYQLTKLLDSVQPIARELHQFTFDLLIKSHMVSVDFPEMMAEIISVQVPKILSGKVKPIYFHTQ
Put plainly: Western blotting of FL AR and AR-V7 in VCaP cells. In kind it is cell-based. The following applies: full media, 16 h, 2-63, 12b 5 and 15 μM, Enz 10 μM, SAHA 1 μM. The method, then: as §2

Test [8] concerns 22Rv1 cells. Put plainly: MTT viability assay, 22Rv1 cells. The following applies: 5 μM, 72 h. The test is classed as cell-based.
Excerpt: as §1

Test [9] deals with AR transcriptional activity in MDA-kb2 cells. The test can be described thus: cells. In kind it is cell-based. The following applies: DHT 1 nM. The procedure:
MDA-kb2-cell-based ARE luciferase assays were performed to assess the influence of 2-63 and related compounds on AR transcriptional activity. […] Upon androgen stimulation and addition of a luciferase substrate, […], and the intensity is proportional to the extent of AR activation. An agent that either antagonistically competes with DHT for AR binding or reduces the expression of AR diminishes luciferase activity/fluorescence signal in this experimental system. […] 10b (an alcohol) and 11 b (an azide) are synthetic precursors of the ITC hybrid 12b.
Luciferase Assay. […] For all procedures, cells were incubated at CO2 free condition. Steady-Glo® (Promega Corp., Madison, WI) reagent was added to culture media with shaking for 10 min. Samples (100 μL) were transferred to an opaque 96-well white plate, and luminescence was measured using a luminometer.

The test system of test [10] is RWPE-1 cells. The test can be described thus: BSO pretreatment plus 2-63, MTT viability, RWPE-1 cells. The following applies: BSO up to 100 μM.
Description: Cell viability was then assessed using an MTT assay.
PCa cells (6×10^3 cells/well) were seeded into 96-well plates overnight and then treated with indicated compounds at indicated concentrations and time durations. The MTT (3-(4, 5-Dimethylthiazol-2-yl)-2,5-diphenyltetrazolium bromide) assay was performed according to the standard protocol. Briefly, MTT (0.5 mg/mL) was incubated with cells at 37° C. for 3 hours. Supernatant was removed, followed by the addition of dimethyl DMSO (100 μl). After incubation for 30 minutes at 37° C., absorbance was read at 570 nm on a microplate reader.

What is called IC50 is the concentration at which inhibition is half-maximal. As for `CC1(C)C(=O)N(c2ccc(C#N)c(C(F)(F)F)c2)C(=S)N1c1ccc(CCCCCCN=C=S)nc1` [12b, 4-(3-(6-(6-Isothiocyanatohexyl)pyridin-3-yl)-4,4-dimethyl-5-oxo-2-thioxoimidazolidin-1-yl)-2-(trifluoromethyl) benzonitrile], the “differential anti-proliferative effect, LNCaP vs RWPE-1 cells” value in [1] is recorded as “almost equally suppressed”. Also, the “relative potency in viability reduction, C4-2 cells” value in test [2] was “more effective than 12a and 12b>2-63>PEITC-NAC”. Besides, in test [3], the Hsp70 protein level entry is recorded as “significantly induced” and the Hsp90 protein level entry is listed as “did not change”. Also, the “histone H3 acetylation” value in test [4] is reported as “did not show significant effects”. In test [4] (SFN 15 μM), the α-tubulin acetylation result is recorded as “did not show significant effects”. In addition, in test [5], the IC50 was 3.89 µM. In test [6], the AR-V7 expression result is “seemed to be more effective”. The “FL AR expression” value in test [7] is reported as “seemed to be more effective”. The “relative potency in viability reduction, 22Rv1 cells” value in [8] was “more effective than 12a and 12b>2-63>PEITC-NAC”. In addition, the “AR inhibition at 1 μM relative to Enz, 10b and 11b” value in test [9] (1 μM) is listed as “less effective”. For the same molecule, in [9] (1-5 μM), the “suppression of DHT-stimulated luciferase activity” value is recorded as “decreased luciferase activity in a dose-dependent manner”. For the same molecule, the “AR inhibition at higher concentrations relative to comparators” value in test [9] (2.5 and 5 μM) is “similarly with these non-ITC-containing compounds”.
As to `CCCCS(=N)(=O)CCC(N)C(=O)O` [BSO, L-buthionine sulfoximine, reference compound], the “enhancement of the potency of 2-63 by BSO in RWPE-1 cells” value in test [10] is “does not notably enhance”.
